How the values were obtained:
[1] = system: J774 macrophages; assay: Radioactive cholesterol efflux from J774 macrophages; type: cell-based, mouse; settings: Study N; 0.03 to 10 mM; 6 hours
Method: J774 macrophages obtained from ATCC (No TIB-67) were grown in Dulbecco's modified Eagle's medium (DMEM, Invitrogen) supplemented with 10% FBS (foetal bovine serum, Invitrogen), 100 units/ml penicillin G (Invitrogen), and 100 units/ml streptomycin (Invitrogen) at 37° C. with 5% CO2. Cells were seeded on 24-well plates (Falcon) at 40,000 cells/well and grown for 32 hours in 2 ml DMEM 10% FBS. LDL oxidation: 1 ml LDL is dialyzed against 4 L PBS (twice, 12 hours each) in Slide-A-Lyzer™ Mini Dialysis Units 7000MWCO (Pierce).
[1] After dialysis, proteins-LDL are quantified with Coomassie protein assay (#1856209, ThermoScientific) using albumin (#23209, ThermoScientific) as standards. Absorbance is read with Glomax multi detection System (Promega) at 600 nm. […] After dialysis, proteins-LDL are quantified by same method as. […]
The efflux is induced by adding different acceptors for 6 hours (or different time between 1 to 24 hours) in 250 μl DMEM without FBS. Radioactivity was measured by adding the medium (0.25 ml) to Super Mix (0.75 ml) (1200-439 Perkin-Elmer), mixed in 24 well flexible microplate (1450-402 Perkin-Elmer) and radioactivity was measured with MicroBeta® Trilux (2 minutes counting time). The intracellular [^3H] cholesterol was extracted by 0.2 ml hexane-isopropanol (3:2) (incubation 0.5 hours) and measured by liquid scintillation counting. […]

[2] = Plasma human ApoA-I by ELISA in apoE−/− mice; type: in vivo, mouse
Method: This study examined the kinetics of the CER-001 infusion by determining the concentration of human ApoA-I in the plasma after infusion of CER-001. The ApoA-I concentration in plasma was determined by ELISA (Assay Pro EA5201-1) following manufacturer instructions.

[3] = system: ABCA1 in mouse ligatured carotids; assay: Western blot of ABCA1 expression in ligatured carotids; type: in vivo
Method: Ligatured carotids previously extracted with chloroform:methanol were solubilized in NAOH 0.1N (100 μL/carotid). The solution was briefly sonicated and centrifuged at 15,000×g for 10 minutes. The protein concentration was determined with Bradford assay and 40 μg of sample were loaded on SDS-PAGE. The ABCA1 expression (ab7360—dilution 1/1000) was quantified using imageJ® software.

[4] = system: ABCA1 in mouse liver; assay: ABCA1 protein content in mouse liver; type: in vivo; settings: 24 hours after the last injection; increasing concentrations
Method: This study examined the SR-BI and ABCA1 protein content in the liver 24 hours after the last injection of CER-001. A piece of liver (50 mg) was lysed in PBS (500 μL) by brief sonication. The sample was centrifuged (800×g for 10 minutes) and the pellet was discarded. The supernatant was centrifuged for 30 minutes at 16,000×g at 4° C. and the pellet was solubilized with PBS 1% Triton X100 (200 μL). 10 μg of solubilized pellet was loaded on SDS PAGE 10% and ABCA1 expression (ab7360—dilution 1/1000) or SR-BI expression (ab24603—dilution 1/1000) was quantified using imageJ® software.

[5] = system: total plaque volume in a 30 mm segment of the target coronary artery; assay: CHI SQUARE phase II trial, IVUS first approach; type: in vivo, human
Excerpt: 504 subjects presenting with acute chest pain or other angina equivalent symptoms, indicative of a diagnosis of ST segment elevation myocardial infarction, non-ST elevation myocardial infarction or unstable angina were enrolled. To be eligible, subjects must have angiographic evidence of coronary artery disease as defined by at least one lesion in any of the three major native coronary arteries that has >20% reduction in lumen diameter by angiographic visual estimation or prior history of percutaneous coronary intervention (“PCI”). The target vessel for PCI was not the target coronary artery for research IVUS, and any vessel with previous PCI could not be used as the target coronary artery.
The study design is illustrated in FIG. 1. The primary endpoint was the nominal change in total plaque volume in a 30 mm segment of the target coronary artery assessed by 3 dimensional IVUS (intra-vascular ultrasound). The key secondary endpoints were % change in plaque volume and change in % atheroma volume in the target 30 mm segment, the change in total vessel volume in the target 30 mm segment, and changes in plaque, lumen and total vessel volumes from baseline in the least and most diseased 5 mm segments. Morbidity and mortality were exploratory endpoints.
Mean total atheroma volume at baseline was 155.24±67.99 mm^3. The adjusted means for change in total atheroma volume were −2.71, −3.13, −1.50 and −3.05 mm^3 in the placebo, CER-001 3 mg/kg, CER-001 6 mg/kg and CER-001 12 mg/kg groups, respectively (p=0.81 for the prespecified primary analysis of 12 mg/kg versus placebo). There were also no differences compared to placebo for the CER-001 6 mg/kg (nominal p=0.45) and 3 mg/kg (nominal p=0.77) groups. The change in percent atheroma volume was similar among all study groups (0.02, −0.02, 0.01 and 0.19% in the placebo, CER-001 3 mg/kg (p=0.86), CER-001 6 mg/kg (p=0.95) and CER-001 12 mg/kg (p=0.53) groups (nominal p-values versus placebo).
In contrast to the “walk-along” approach discussed below, frame pairs were individually selected for optimum readability. Frames were selected based upon absence of echogenicity (calcium) and side branches. A maximum of 31 frames were selected over a 30 mm segment, excluding the benefit of pull-backs longer than 30 mm. No pre-defined criteria were used to select the 31 frames for inclusion in analysis set when >31 frames available.

Molecule	cholesterol efflux [1]	human ApoA-I plasma concentration ([2]; 2-50 mg/kg)	human plasma ApoA-I relative to expected doses ([2]; mouse, in vivo)	carotid ABCA1 expression ([3]; 5 mg/kg)	carotid ABCA1 content ([3]; 50 mg/kg)	liver ABCA1 protein level [4]	adjusted mean change in total atheroma volume ([5]; 3 mg/kg) [mm^3]	change in percent atheroma volume ([5]; 3 mg/kg) [%]	adjusted mean change in total atheroma volume ([5]; 6 mg/kg) [mm^3]	change in percent atheroma volume ([5]; 6 mg/kg) [%]	adjusted mean change in total atheroma volume ([5]; 12 mg/kg) [mm^3]	change in percent atheroma volume ([5]; 12 mg/kg) [%]
OC[C@H]1O[C@@H]2O[C@H]3[C@H](O)[C@@H](O)[C@@H](O[C@H]4[C@H](O)[C@@H](O)[C@@H](O[C@H]5[C@H](O)[C@@H](O)[C@@H](O[C@H]6[C@H](O)[C@@H](O)[C@@H](O[C@H]7[C@H](O)[C@@H](O)[C@@H](O[C@H]8[C@H](O)[C@@H](O)[C@@H](O[C@H]1[C@H](O)[C@H]2O)O[C@@H]8CO)O[C@@H]7CO)O[C@@H]6CO)O[C@@H]5CO)O[C@@H]4CO)O[C@@H]3CO [β-cyclodextrin, reference compound]	dose-dependent increase	–	–	–	–	–	–	–	–	–	–	–
CER-001: engineered recombinant human apolipoprotein A-I HDL with sphingomyelin and DPPG; protein-to-phospholipid ratio 1:2.7, 97% Sph and 3% DPPG	–	dose-dependent increase	expected doses of ApoA-I in plasma were retrieved	did not affect the ABCA1 expression	decrease	increase in ABCA1 protein level	−3.13	−0.02	−1.50	0.01	−3.05	0.19

Reference: patent US20180203025A1, “HDL THERAPY MARKERS” (Cerenis Therapeutics Holding SA, priority 2014, published 2018)
